The values that follow come from patent US20250230193A1, “CYCLIC COMPOUND HAVING SELECTIVE KRAS INHIBITORY EFFECT ON HRAS AND NRAS” (CHUGAI SEIYAKU KABUSHIKI KAISHA, priority 2022, published 2025).

Test [1] deals with GDP-bound HRAS wild-type protein (Homo sapiens, UniProt P01112). Briefly: Binding to HRAS by surface plasmon resonance (SPR), Single Cycle Kinetics. As to conditions: SPR; for HRAS/KRAS (ratio of KD value for GDP-bound HRAS wild-type protein to KD value for KRAS): KD ratio class. A general note: In SPR one partner is held on a chip, and binding of the other changes the refractive index at the surface.

Test [2] deals with human lung cancer strain NCI-H441.
For test [3], the target named is GDP-bound NRAS wild-type protein (Homo sapiens, UniProt P01111). The test can be described thus: Binding to NRAS by surface plasmon resonance (SPR), Single Cycle Kinetics. The following applies: SPR; for NRAS/KRAS (ratio of KD value for GDP-bound NRAS wild-type protein to KD value for KRAS): KD ratio class.
For test [4], the target named is GDP-bound KRAS wild-type protein (Homo sapiens, UniProt P01116). Briefly: Binding to KRAS by surface plasmon resonance (SPR), Single Cycle Kinetics. The following applies: GDP-bound KRAS wild-type protein.
Setting [5] is: read-out: NCI-H441 IC50, NCI-H441 cells, 4 days, CellTiter-Glo.
Setting [6] is: SPR Single Cycle Kinetics, 1:1 binding model.

Read-outs that look alike come from different tables or passages of the source.

Chain of GDP-bound NRAS wild-type protein (P01111 whole entry): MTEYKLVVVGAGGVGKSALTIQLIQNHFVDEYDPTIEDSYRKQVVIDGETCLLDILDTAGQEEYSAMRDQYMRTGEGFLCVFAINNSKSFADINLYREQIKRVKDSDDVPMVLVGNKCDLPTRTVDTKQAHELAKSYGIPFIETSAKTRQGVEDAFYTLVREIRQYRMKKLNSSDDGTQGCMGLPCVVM
Chain of GDP-bound HRAS wild-type protein (P01112 whole entry): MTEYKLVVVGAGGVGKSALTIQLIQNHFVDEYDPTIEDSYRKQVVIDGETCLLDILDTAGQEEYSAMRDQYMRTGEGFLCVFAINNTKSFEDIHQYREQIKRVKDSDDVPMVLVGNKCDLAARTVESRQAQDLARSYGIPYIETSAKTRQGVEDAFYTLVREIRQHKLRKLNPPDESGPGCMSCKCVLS

For orientation: IC50 means the concentration that inhibits the measured activity by half. For orientation: Kd means the constant that tells how readily two partners part at equilibrium. On to `CCO[C@@H]1C[C@H]2C(=O)NC3(CC(F)(F)C3)C(=O)N(C)[C@@H](C3CCCC3)C(=O)N(C)C(C3CCCCC3)CC(=O)N(C)[C@@H](COC)C(=O)N[C@@H]([C@@H](C)CC)C(=O)N(C)CC(=O)N(C)[C@H]3C/C=C\CCN(C3=O)[C@@H](Cc3ccc(C(F)(F)F)cc3)C(=O)N(C)CC(=O)N[C@@H](CCc3cc(F)c(C(F)(F)F)c(F)c3)C(=O)N2C1` (stereo partly shown) [PP1586], for which the “HRAS/KRAS (ratio of KD value for GDP-bound HRAS wild-type protein to KD value for KRAS)” value in test [1] is “A (a compound having 10 or more and less than 20 is denoted as A)”. Also, the IC50 in test [2] (setting [5]) turned out to be 85.5 nM. For the same compound, in test [3], the “NRAS/KRAS (ratio of KD value for GDP-bound NRAS wild-type protein to KD value for KRAS)” value was “A (a compound having 10 or more and less than 20 is denoted as A)”. In test [4] (SPR, Single Cycle Kinetics), the equilibrium dissociation constant (Kd) was 0.76 nM.
Regarding `CCO[C@@H]1C[C@H]2C(=O)NC3(CCC3)C(=O)N(C)[C@@H](C(CC)CC)C(=O)N(C)C(C(C)C)CC(=O)N(C)[C@@H](CC)C(=O)N[C@@H]([C@@H](C)CC)C(=O)N(C)CC(=O)N(C)[C@H]3C/C=C\CCN(C3=O)[C@@H](Cc3ccc(C(F)(F)F)cc3)C(=O)N(C)CC(=O)N[C@@H](CCc3cc(F)c(C(F)(F)F)c(F)c3)C(=O)N2C1` (stereo partly shown) [PP1589], in test [1], the “HRAS/KRAS (ratio of KD value for GDP-bound HRAS wild-type protein to KD value for KRAS)” value is “A (a compound having 10 or more and less than 20 is denoted as A)”. In addition, in test [2] (setting [5]), the IC50 stood at 86.6 nM. Besides, in test [3], the “NRAS/KRAS (ratio of KD value for GDP-bound NRAS wild-type protein to KD value for KRAS)” value is “A (a compound having 10 or more and less than 20 is denoted as A)”. This compound gave a Kd in test [4] (SPR, Single Cycle Kinetics) of 1.8 nM.
Take `CCO[C@@H]1C[C@H]2C(=O)NC3(CC(C)(C)C3)C(=O)N(C)[C@@H](C(CC)CC)C(=O)N(C)C(C(C)C)CC(=O)N(C)[C@@H](CC3CC3)C(=O)N[C@@H]([C@@H](C)CC)C(=O)N(C)CC(=O)N(C)[C@H]3C/C=C\CCN(C3=O)[C@@H](Cc3ccc(C(F)(F)F)cc3)C(=O)N(C)CC(=O)N[C@@H](CCc3cc(F)c(C(F)(F)F)c(F)c3)C(=O)N2C1` (stereo partly shown) [PP1593]: in test [1], the “HRAS/KRAS (ratio of KD value for GDP-bound HRAS wild-type protein to KD value for KRAS)” value was “A (a compound having 10 or more and less than 20 is denoted as A)”. In addition, in test [2] (setting [5]), the IC50 stood at 144 nM. Moreover, the “NRAS/KRAS (ratio of KD value for GDP-bound NRAS wild-type protein to KD value for KRAS)” value in test [3] was “A (a compound having 10 or more and less than 20 is denoted as A)”. Moreover, binding in test [4] (SPR, Single Cycle Kinetics) was put at a Kd of 4.3 nM.
`CCO[C@@H]1C[C@H]2C(=O)NC3(CCC3)C(=O)N(C)[C@@H](C(CC)CC)C(=O)N(C)C(C(C)C)CC(=O)N(C)[C@@H](CC3CC3)C(=O)N[C@@H]([C@@H](C)CC)C(=O)N(C)CC(=O)N(C)[C@H]3C/C=C\CCN(C3=O)[C@@H](Cc3ccc(C(F)(F)F)cc3)C(=O)N(C)CC(=O)N[C@@H](CCc3cc(F)c(C(F)(F)F)c(F)c3)C(=O)N2C1` (stereo partly shown) [PP1595]: the “HRAS/KRAS (ratio of KD value for GDP-bound HRAS wild-type protein to KD value for KRAS)” value in test [1] was “A (a compound having 10 or more and less than 20 is denoted as A)”. In addition, the IC50 in test [2] (setting [5]) turned out to be 64.6 nM. Besides, in test [3], the “NRAS/KRAS (ratio of KD value for GDP-bound NRAS wild-type protein to KD value for KRAS)” value was “A (a compound having 10 or more and less than 20 is denoted as A)”. In addition, in test [4] (SPR, Single Cycle Kinetics), binding was put at a Kd of 2.3 nM.
For `CCO[C@@H]1C[C@H]2C(=O)NC3(CC(F)(F)C3)C(=O)N(C)[C@@H](C3CCCC3)C(=O)N(C)C(C(C)C)CC(=O)N(C)[C@@H](CC3CC3)C(=O)N[C@@H]([C@@H](C)CC)C(=O)N(C)CC(=O)N(C)[C@H]3C/C=C\CCN(C3=O)[C@@H](Cc3ccc(C(F)(F)F)cc3)C(=O)N(C)CC(=O)N[C@@H](CCc3cc(F)c(C(F)(F)F)c(F)c3)C(=O)N2C1` (stereo partly shown) [PP1598], the “HRAS/KRAS (ratio of KD value for GDP-bound HRAS wild-type protein to KD value for KRAS)” value in test [1] was “A (a compound having 10 or more and less than 20 is denoted as A)”. The IC50 in test [2] (setting [5]) turned out to be 36.6 nM. Further, the “NRAS/KRAS (ratio of KD value for GDP-bound NRAS wild-type protein to KD value for KRAS)” value in test [3] was “A (a compound having 10 or more and less than 20 is denoted as A)”. The Kd in test [4] (SPR, Single Cycle Kinetics) amounted to 0.76 nM.
As to `CCO[C@@H]1C[C@H]2C(=O)NC3(CCC3)C(=O)N(C)[C@@H](C3CCCC3)C(=O)N(C)[C@H](C(=O)N(C)CC)CC(=O)N(C)[C@H]3CCCC/C=C/c4ccc(cc4)C[C@@H](C(=O)N(C)CC(=O)N[C@@H](CCc4ccc(C(F)(F)F)c(OC)c4)C(=O)N2C1)N1CC/C=C\C[C@@H](C1=O)N(C)C(=O)CN(C)C(=O)[C@H]([C@@H](C)CC)NC3=O` [PP1828], the “HRAS/KRAS (ratio of KD value for HRAS to KD value for KRAS)” value in test [1] (KD ratio, GDP-bound HRAS wild-type vs GDP-bound KRAS wild-type) was “B (a compound having 3 or more and less than 10 is denoted as B)”. Moreover, the IC50 in test [2] was 1.9 nM. Also, in test [3] (KD ratio, GDP-bound NRAS wild-type vs GDP-bound KRAS wild-type), the “NRAS/KRAS (ratio of KD value for NRAS to KD value for KRAS)” value is “A (a compound having 10 or more and less than 20 is denoted as A)”. The compound also yielded a Kd in test [4] (setting [6]) of 0.039 nM.
Consider `CC[C@H](C)[C@@H]1NC(=O)[C@@H](CC(C)C)N(C)C(=O)CSC[C@H](C(=O)N(C)C)N(C)C(=O)[C@@H](C2CCCC2)N(C)C(=O)C2(CCCC2)NC(=O)[C@@H]2CCCN2C(=O)[C@H](CCc2cc(F)c(C(F)(F)F)c(F)c2)NC(=O)CN(C)C(=O)[C@H](Cc2ccc(C(F)(F)F)cc2)N2CC=CC[C@@H](C2=O)N(C)C(=O)CN(C)C1=O` [PP3108], for which the “HRAS/KRAS (ratio of KD value with respect to GDP-bound HRAS wild-type protein to KD value with respect to KRAS)” value in test [1] (KD ratio HRAS/KRAS, GDP-bound wild-type proteins) is “B (a compound having 3 or more and less than 10 is denoted as B)”. In test [2], this compound showed an IC50 of 9250 nM. Moreover, the “NRAS/KRAS (ratio of KD value with respect to GDP-bound NRAS wild-type protein to KD value with respect to KRAS)” value in test [3] (KD ratio NRAS/KRAS, GDP-bound wild-type proteins) is “C (A compound having a KD ratio of 0.1 or more and less than 3 is denoted as C)”. The compound also yielded a Kd in test [4] (setting [6]) of 870 nM.
